According to the supplement of paper PMC10307832:

How the values were obtained:
Assay in all cases: relative viability (nuclei count vs DMSO), 5 days (fraction); higher = more cells survive
[1] = compound: CC(C)(C)c1cc(NC(=O)Nc2ccc(-c3cn4c(n3)sc3cc(OCCN5CCOCC5)ccc34)cc2)no1 [Quizartinib] + Cc1nc(NC(=O)N2CCC[C@H]2C(N)=O)sc1-c1ccnc(C(C)(C)C(F)(F)F)c1 [Alpelisib] (partner 2 µM)
Method in brief: (§1)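 Medians of duplicate plates are given as relative viability. That measure is the nuclei count in treated wells divided by the count in vehicle wells. Counts were taken on 4× images of lung cancer cell lines in 1536-well plates, 5 days after pin-tool dosing the day after seeding with one drug alone or a fixed anchor-drug dose plus five library-drug doses (not always all listed) in √10 steps.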

[2] = compound: COCC[n+]1c2c(n(Cc3cnccn3)c1C)C(=O)c1ccccc1C2=O [YM155] + CC(C)C[C@H](NC(=O)[C@H](Cc1ccccc1)NC(=O)c1cnccn1)B(O)O [Bortezomib] (partner 0.002 µM)
Method in brief: as §1

[3] = compound: COCC[n+]1c2c(n(Cc3cnccn3)c1C)C(=O)c1ccccc1C2=O [YM155]
Method in brief: (§2)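 Only plates meeting two conditions passed: control CV below 25% and at least one doubling. Lung cancer cell lines, kept overnight at 37 °C in 1536-well plates, were pinned with five library-drug doses (not always all listed) √10 apart on vehicle-anchored plates and grown 5 days without medium change. A one-step fix, permeabilisation and Hoechst stain preceded 4× imaging and MetaXpress nuclear counting. Viability equals treated-well nuclei divided by vehicle-well nuclei, as the median over plates.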

[4] = compound: CC(C)(C)c1cc(NC(=O)Nc2ccc(-c3cn4c(n3)sc3cc(OCCN5CCOCC5)ccc34)cc2)no1 [Quizartinib]
Method in brief: as §2

Cell Line | relative viability ([1]; first compound 0.001 µM) | relative viability ([1]; first compound 0.003162 µM) | relative viability ([1]; first compound 0.01 µM) | relative viability ([1]; first compound 0.03162 µM) | relative viability ([1]; first compound 0.1 µM) | relative viability ([2]; first compound 0.002 µM) | relative viability ([2]; first compound 0.006325 µM) | relative viability ([2]; first compound 0.02 µM) | relative viability ([2]; first compound 0.06325 µM) | relative viability ([3]; 0.002 µM) | relative viability ([3]; 0.006325 µM) | relative viability ([3]; 0.02 µM) | relative viability ([3]; 0.06325 µM) | relative viability ([4]; 0.001 µM) | relative viability ([4]; 0.003162 µM) | relative viability ([4]; 0.01 µM) | relative viability ([4]; 0.03162 µM) | relative viability ([4]; 0.1 µM)
NCI-H2009 | 1.14 | 1.01 | 1.19 | 1.09 | 1.13 | 0.944 | 1.02 | 1.04 | 0.923 | 0.976 | 0.992 | 1.02 | 0.836 | 0.903 | 0.937 | 0.995 | 1.02 | 0.96
NCI-H2023 | 0.562 | 0.467 | 0.665 | 0.323 | 0.575 | 0.984 | 1.01 | 1.17 | 0.893 | 0.872 | 1.01 | 0.866 | 0.71 | 0.881 | 0.999 | 0.938 | – | 1.01
NCI-H2085 | 0.88 | 0.881 | 0.997 | 0.822 | 0.827 | 0.949 | 0.974 | 0.83 | 0.631 | 0.954 | 0.986 | 0.922 | 0.636 | 0.95 | 0.939 | 1.02 | 0.943 | 0.976
NCI-H2087 | 1.05 | 0.98 | 1.19 | 1.14 | 0.836 | 0.872 | 0.76 | 0.867 | 0.783 | 1.07 | 1.03 | 1.1 | 0.856 | 0.85 | 0.784 | 1.24 | 1.09 | 1.11
NCI-H2126 | 0.76 | 0.726 | 0.757 | 0.774 | 0.753 | 1.07 | 1.13 | 1.09 | 1.16 | 0.972 | 1.03 | 0.991 | 1.05 | 0.981 | 1.01 | 1.01 | 1.05 | 1.08
NCI-H2228 | 0.771 | 0.58 | 0.79 | 0.721 | 0.678 | 0.975 | 0.923 | 1.11 | 1.1 | 0.834 | 0.887 | 1.02 | 1.11 | 0.856 | 0.854 | 1.15 | 1.13 | 0.927
NCI-H2347 | 0.655 | 0.995 | 1.12 | 1.11 | 1.14 | 0.984 | 1.05 | 1.24 | 0.819 | 0.928 | 0.994 | 1.07 | 0.868 | 0.961 | 1.06 | 1.07 | 0.965 | 1.12
NCI-H2405 | 0.579 | 0.748 | 0.847 | 0.733 | 0.978 | 0.951 | 1.01 | 0.971 | 0.701 | 0.952 | 0.903 | 0.956 | 0.595 | 0.986 | 1.03 | 0.955 | 0.958 | 1.06
NCI-H3122 | 0.567 | 0.693 | 1.01 | 0.831 | 0.651 | 1 | 1.01 | 1.05 | 0.973 | 0.984 | 0.992 | 1.01 | 0.976 | 0.885 | 0.977 | 1.07 | 1.01 | 0.982
